Literature values, collected in patent US10485808B2, “Selective progesterone receptor modulators (SPRM) and stabilized estrogen level in patient” (BAYER PHARMA AKTIENGESELLSCHAFT, priority 2017, dated 2019).
Where two headings read alike, the source gives them in different places.

Test system: patients with Uterine Fibroids (UF)
Settings: cited from earlier work; for Patients with moderate to severe hot flushes: 12-13 weeks of treatment; for Serum estradiol levels after treatment: after 12-13 weeks treatment

Compound: CC(=O)O[C@]1(C(C)=O)CC[C@H]2[C@@H]3CCC4=CC(=O)CCC4=C3[C@@H](c3ccc(N(C)C)cc3)C[C@@]21C [Ulipristal acetate]
- Patients with moderate to severe hot flushes (5 mg/day): 11%
- Serum estradiol levels after treatment (5 mg/day): 64 pg/mL
- Amenorrhoea rate (secondary endpoint) (5 mg/day): 75%
- Hot flushes of any severity (5 mg): 26%
- Patients with moderate to severe hot flushes (10 mg/day): 10%
- Serum estradiol levels after treatment (10 mg/day): 61 pg/mL
- Amenorrhoea rate (secondary endpoint) (10 mg/day): 89%
- Hot flushes of any severity (10 mg): 24%
